Source: patent US7919508B2, “3-piperidinylisochroman-5-ols as dopamine agonists” (Aventis Pharmaceuticals Inc., priority 2004, dated 2011)
Structures can show the parent of a compound that is named as a salt.

Assays:
[1] = target: T1, human dopamine D1 receptor (Homo sapiens, UniProt P21728); assay: [3H]-SCH-23390 binding to cloned human dopamine D1 receptors (CHO cell membranes); settings: competitive binding, [3H]-SCH-23390, cloned human D1 in CHO membranes; read-out: D1 affinity Ki
T1 construct: A 1.4 Kb Hind III to Xho I fragment was subcloned into the vector pMMLV; expressed in transfected cells; host or cells: CHO cells, clone CHO-D1M#9 (plasmid pHD1MMLV), membranes
T1 sequence (P21728 whole entry, the tested form may be a part): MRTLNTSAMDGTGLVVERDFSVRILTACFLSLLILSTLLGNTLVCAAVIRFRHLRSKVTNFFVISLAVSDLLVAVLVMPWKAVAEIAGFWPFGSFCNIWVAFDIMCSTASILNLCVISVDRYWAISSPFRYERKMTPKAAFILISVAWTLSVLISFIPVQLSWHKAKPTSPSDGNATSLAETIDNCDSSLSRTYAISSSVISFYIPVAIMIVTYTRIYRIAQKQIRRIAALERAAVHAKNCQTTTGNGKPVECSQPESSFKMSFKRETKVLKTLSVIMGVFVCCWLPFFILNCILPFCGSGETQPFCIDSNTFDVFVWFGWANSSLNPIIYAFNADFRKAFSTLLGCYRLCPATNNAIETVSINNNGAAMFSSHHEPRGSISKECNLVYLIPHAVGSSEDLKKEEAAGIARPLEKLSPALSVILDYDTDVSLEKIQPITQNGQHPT

D1 receptor = target: T2, D1 receptor (Homo sapiens, UniProt P21728); assay: D1 Activation Adenylyl Cyclase Assay (cAMP FlashPlate, D1 transfected CHO cell line); type: cell-based; settings: agonist activity at the D1 receptor, adenylate cyclase assay, D1 transfected CHO cell line; read-out: D1 EC50
T2 construct: expressed in transfected cells; host or cells: D1 transfected CHO cell line
T2 sequence (P21728 whole entry): as the sequence (P21728 whole entry, the tested form may be a part) above
Procedure: D1 Activation Adenylyl Cyclase Assay
Purpose: To measure D1-agonist activity compounds using an Adenylyl Cyclase Activation Flash Plate Assay from NEN.
Buffers: Activation and Detection buffers are provided from NEN: Catalog # SMP004A.
Maintenance of D1 transfected CHO cell line: • 1. Cells are grown in a 150 cc flask in an incubator at 37° C. with 5% CO2 for 2-3 days (4 maximum) until confluent. • 2. Aspirate off old media (Cells adhere to the plastic flask), wash 2× with sterile PBS. • 3. Add ˜5 mL of Trypsin EDTA (enough to cover bottom of the flask) for 5 min. at RT. • 4. Stop digestion with 15 mL of Media (Ham's F12 plus 10% FBS, 1% P/S, 400 μg/mL G418). • Bang flask on counter to release them from the flask. • 5. Add 2 mL of this to 30 mL of Media in a fresh flask. Return to incubator. Preparation of Cells for Assay: • 1. Loosen the cells with 5 mL Vercine (EDTA)/flask for 10 minutes in incubator. • 2. Add 20 mL of Serum-free media/flask. Transfer to 50-mL Falcon tube. • 3. Spin down cells at 1000 RPM for 5 minutes at 4° C. • 4. Aspirate off old media and resuspend in 5 mL of Serum-free media/plate to be done. • 5. Dilute 10 μL 1/10 in 90 μL Trypan Blue solution and count with a hemocytometer. • Count (live cells only) all four areas and average them. • Count X 10^5 equals cells/mL (including accounting for dilution in Trypan). • 6. Dilute to 50,000 cells/50 μL (1,000,000 cells/mL) in Serum-free media. • 7. Put 50 μL/well in Rows 3-12 of a cAMP FlashPlate. • 8. Put in incubator at 37° C. for 2-4 hours, to allow cells to recover and attach. Adenylyl Cyclase Activation Assay: • 1. Prepare the cAMP standards: • Add 130 μL/well of stimulation buffer to each row of a separate 96-well “standard” plate, 2 columns/plate. • Dilute stock cAMP standard 1/5 with stimulation buffer (final concentration is 1000 pmol/mL). Add 130 μL of this to row A. • Make 1/2 serial dilutions by adding 130 μL from each well to the next (A-G), mixing between each. • Final concentrations are: • A: 500, B: 250, C: 125, D: 62.5, E: 31.25, F: 15.6, G: 7.8, H: 0 pmol/mL. • Place 100 μL from each row from 2 columns of the standard plate into columns 1 and 2 of each “reaction” plate. • 2. Prepare the negative and positive control in the “reaction” plate: • Column 3, rows A-D, add 100 μL stimulation buffer (negative control). • Column 3, rows E-H, add 90 μL of stimulation buffer plus 10 μL of 200 μM APO (positive control, […]). (10 μL 10 mM APO, plus 490 μL stim. buffer=1/50 dilution.) • 3. Prepare the agonist compound dilutions in the “compound” plate: • Add 80 μL of stimulation buffer to row A (One column for each compound), and 90 μL of stimulation buffer to rows B—H. • Add 20 μL of 10 mM of each compound to appropriate row A. • Make 1/10 serial dilutions by adding 10 μL from each well to the next (A-H), mixing between each. • 4. […]. Prepare Detection/Stop buffer by adding 90 μL/plate of cAMP-^125I to 10 mL/plate plus 6 mL (for dead volume) of detection buffer. Steps 6-8 performed with the Multi-Mek. • 6. Add 50 μL to each well of the FlashPlate with CHO cells set up earlier. • 7. Incubate at RT for 8 minutes. • 8. Stop reaction by adding 100 μL of detection/stop buffer to each well. • 9. Cover with plastic film and incubate at RT for 16-24 hours (don't wait more than 24 hours). • 10. Count in a Packard Top-Count. Calculations: • 1. Raw signals generated by cAMP standard wells, without cells, are averaged at each cAMP concentration and converted to % B/Bo by dividing the raw signal at each cAMP concentration by the raw signal with no cAMP added. • 2. These values are used to generate a standard curve by plotting cAMP concentration versus % B/Bo. • 3. Raw data for each compound at each concentration is also converted to % B/B. by the same method. • 4. These values are then converted to pmol cAMP/mL using the standard curve. • 5. These cAMP values are then averaged across the three replicates for each compound concentration. • 6. […]

SMILES	Ki [1]	EC50 (D1 receptor)
Cc1ccc(C(=O)NC(C)CCN2CCC([C@@H]3Cc4c(ccc(C)c4O)[C@H](CN)O3)CC2)cc1 (stereo partly drawn) [Example 15, N-{3-[4-((1R,3S)-1-Aminomethyl-5-hydroxy-6-methyl-isochroman-3-yl)-piperidin-1-yl]-1-methyl-propyl}-4-methyl-benzamide dihydrochloride]	126 nM	11 nM
Cc1ccc2c(c1O)C[C@@H](C1CCN(CCC(C)NC(=O)c3ccc(Br)cc3)CC1)O[C@H]2CN (stereo partly drawn) [Example 23, N-{3-[4-((1R,3S)-1-Aminomethyl-5-hydroxy-6-methyl-isochroman-3-yl)-piperidin-1-yl]-1-methyl-propyl}-4-bromo-benzamide dihydrochloride]	91.8 nM	59 nM
Cc1ccc2c(c1O)C[C@@H](C1CCN(CCC(C)c3ccccc3)CC1)O[C@H]2CN (stereo partly drawn) [Example 27, (1R,3S)-1-Aminomethyl-6-methyl-3-[1-(3-phenyl-butyl)-piperidin-4-yl]-isochroman-5-ol dihydrobromide]	–	280 nM
Cc1ccc2c(c1O)C[C@@H](C1CCN(Cc3ccncc3)CC1)O[C@H]2CN [Example 54, (1R,3S)-1-Aminomethyl-6-methyl-3-(1-pyridin-4-ylmethyl-piperidin-4-yl)-isochroman-5-ol dihydrochloride]	153 nM	45 nM
Cc1ccc2c(c1O)C[C@@H](C1CCN(Cc3ccc(Cl)cc3)CC1)O[C@H]2CN [Example 58, (1R,3S)-1-Aminomethyl-3-[1-(4-chloro-benzyl)-piperidin-4-yl]-6-methyl-isochroman-5-ol dihydrochloride]	52 nM	10 nM
COc1ccc(CN2CCC([C@@H]3Cc4c(ccc(C)c4O)[C@H](CN)O3)CC2)cc1 [Example 61, (1R,3S)-1-Aminomethyl-3-[1-(4-methoxy-benzyl)-piperidin-4-yl]-6-methyl-isochroman-5-ol dihydrochloride]	19.8 nM	47 nM
Cc1ccc2c(c1O)C[C@@H](C1CCN(Cc3ccc(O)cc3)CC1)O[C@H]2CN [Example 62, (1R,3S)-1-Aminomethyl-3-[1-(4-hydroxy-benzyl)-piperidin-4-yl]-6-methyl-isochroman-5-ol dihydrochloride]	46.1 nM	14 nM
Cc1ccc2c(c1O)C[C@@H](C1CCN(Cc3ccc(F)c(F)c3)CC1)O[C@H]2CN [Example 63, (1R,3S)-1-Aminomethyl-3-[1-(3,4-difluoro-benzyl)-piperidin-4-yl]-6-methyl-isochroman-5-ol dihydrochloride]	6.8 nM	9 nM
Cc1ccc(CN2CCC([C@@H]3Cc4c(ccc(C)c4O)[C@H](CN)O3)CC2)cc1 [Example 66, (1R,3S)-1-Aminomethyl-6-methyl-3-[1-(4-methyl-benzyl)-piperidin-4-yl]-isochroman-5-ol dihydrochloride]	75.7 nM	6 nM
Cc1ccc2c(c1O)C[C@@H](C1CCN(Cc3ccsc3)CC1)O[C@H]2CN [Example 67, (1R,3S)-1-Aminomethyl-6-methyl-3-(1-thiophen-3-ylmethyl-piperidin-4-yl)-isochroman-5-ol dihydrochloride]	62.6 nM	9 nM
Cc1ccc2c(c1O)C[C@@H](C1CCN(Cc3cccc(F)c3)CC1)O[C@H]2CN [Example 69, (1R,3S)-1-Aminomethyl-3-[1-(3-fluoro-benzyl)-piperidin-4-yl]-6-methyl-isochroman-5-ol dihydrochloride]	32.5 nM	10 nM
Cc1ccc2c(c1O)C[C@@H](C1CCN(Cc3ccc(C(F)(F)F)cc3F)CC1)O[C@H]2CN [Example 70, (1R,3S)-1-Aminomethyl-3-[1-(2-fluoro-4-trifluoromethyl-benzyl)-piperidin-4-yl]-6-methyl-isochroman-5-ol dihydrochloride]	19.4 nM	77 nM
Cc1ccc2c(c1O)C[C@@H](C1CCN(Cc3ccoc3)CC1)O[C@H]2CN [Example 71, (1R,3S)-1-Aminomethyl-3-(1-furan-3-ylmethyl-piperidin-4-yl)-6-methyl-isochroman-5-ol hydrochloride]	94.2 nM	420 nM
Cc1ccc2c(c1O)C[C@@H](C1CCN(Cc3ccccc3)CC1)O[C@H]2CN [Example 93, (1R,3S)-1-Aminomethyl-3-[1-(benzyl)-piperidin-4-yl]-6-methyl-isochroman-5-ol dihydrobromide]	–	45 nM
CNC[C@@H]1O[C@H](C2CCN(C)CC2)Cc2c1ccc(C)c2O [Example 102, (1R,3S)-6-Methyl-1-methylaminomethyl-3-(1-methyl-piperidin-4-yl)-isochroman-5-ol dihydrobromide]	147 nM	1500 nM
Cc1ccc2c(c1O)C[C@@H](C1CCN(CCCC(c3ccc(F)cc3)c3ccc(F)cc3)CC1)O[C@H]2CN [Example 108, (1R,3S)-1-Aminomethyl-3-{1-[4,4-bis-(4-fluoro-phenyl)-butyl]-piperidin-4-yl}-6-methyl-isochroman-5-ol dihydrobromide]	110 nM	36 nM
Cc1ccc2c(c1O)C[C@@H](C1CCN(CCCc3ccccc3)CC1)O[C@H]2CN [Example 110, (1R,3S)-1-Aminomethyl-6-methyl-3-[1-(3-phenyl-propyl)-piperidin-4-yl]-isochroman-5-ol dihydrochloride]	–	6 nM
Cc1ccc2c(c1O)C[C@@H](C1CCN(Cc3ccc(C(F)(F)F)cc3)CC1)O[C@H]2CN(C)C [Example 168, (1R,3S)-1-Dimethylaminomethyl-6-methyl-i-3-[1-(4-trifluoromethylbenzyl)piperidin-4-yl]-isochroman-5-ol]	45 nM	31000 nM
CNC[C@@H]1O[C@H](C2CCN(Cc3ccc(C(F)(F)F)cc3)CC2)Cc2c1ccc(C)c2O [Example 181, (1R,3S)-6-Methyl-1-methylaminomethyl-3-[1-(4-trifluoromethyl-benzyl)-piperidin-4-yl]-isochroman-5-ol hydrochloride]	21 nM	220 nM
CCNC[C@@H]1O[C@H](C2CCN(Cc3ccc(C(F)(F)F)cc3)CC2)Cc2c1ccc(C)c2O [Example 182, (1R,3S)-1-Ethylaminomethyl-6-methyl-3-[1-(4-trifluoromethyl-benzyl)-piperidin-4-yl]-isochroman-5-ol]	255 nM	1300 nM
CCN(C)C[C@@H]1O[C@H](C2CCN(Cc3ccc(C(F)(F)F)cc3)CC2)Cc2c1ccc(C)c2O [Example 183, (1R,3S)-1-[(Ethyl-methyl-amino)-methyl]-6-methyl-3-[1-(4-trifluoromethyl-benzyl)-piperidin-4-yl]-isochroman-5-ol]	123 nM	7000 nM
